{"source": "patent US20260364072A1", "about": "“METHODS FOR PROMOTING EXPANSION OF HUMAN CD34+ CELLS IN VIVO AND FOR PROMOTING NEURAL REGENERATION” (THE REGENTS OF THE UNIVERSITY OF CALIFORNIA, priority 2023, published 2026)", "key": {"[1]": {"test_system": "RBL-1 leukemia cells (Sf3b family members)", "assay": "Splice isoform biomarker qRT-PCR in rat RBL-1 leukemia cells", "type": "cell-based", "details": "1 μM, 4 hr; different lots of Rebecsinib", "experimental": "For quantitative analysis of splice isoform expression, RNA editing rates, and whole gene expression by qRT-PCR, cells or tissue fragments were harvested in RNA lysis buffer and total RNA was extracted using RNeasy mini or micro extraction kits (QIAGEN, Germantown, MD) following the manufacturer's protocol including a DNase incubation step to digest any trace genomic DNA present. Levels of ADAR1 variants and LSC-specific transcripts were quantified by qRT-PCR as previously described.^14 RNA-editing site-specific qRT-PCR (RESSqPCR) was performed for variants in AZIN1 transcripts.^53 Additional species-specific primers were also designed to quantify intron retention rates in cells treated with Rebecsinib as a biomarker of response to RNA splicing modulation. […] Relative mRNA expression values were calculated using the 2^−ΔCT method, with normalization to untreated or vehicle-treated controls.^54\nFor multi-species biomarker development and transcript variant-specific qRT-PCR experiments, human AML cell lines KG-1a, MOLM-13, and HL-60, and rat leukemia cells RBL-1 were grown to confluence and treated with 1 μM Rebecsinib for 4 hr. Cells were collected and lysed in Qiagen RNA lysis buffer, and analyzed using the species-specific primers and qRT-PCR procedures described above."}, "[2]": {"test_system": "human CD45+ADAR1-GFP+ cells and CD45+CD3+ADAR1-GFP+ cells", "assay": "aNBM SAK148 PDX mice, flow cytometry", "type": "in vivo, human cells in NSG-SGM3 mice", "details": "10 mg/kg, IV, BIW×2", "experimental": "Aged normal bone marrow (aNBM) PDX mouse models SAK148, which were established with 80-100K ADAR1-reporter transduced CD34+ cells by IV injection into NSG-SGM3 mice at the age of 5-6 weeks. When the models were ready, the mice were treated with either vehicle or rebecsinib (10 mg/kg, IV, BIW×2). The mice were sacrificed upon completion of the dosing plan, and single cells from PB, SP, and BM were collected and stained with mAbs for CD45, CD3, CD14, and CD19."}, "human CD34+ cells": {"test_system": "human CD34+ cells", "assay": "Aged normal bone marrow CD34+ engrafted NSG-SGM3 mice, flow cytometry of PB, SP, BM", "type": "in vivo, human cells in NSG-SGM3 mice", "details": "10 mg/kg, intravenously, twice a week for 2 weeks", "from_the_text": "Here, we established humanized mouse models using CD34^+ stem cells isolated from the peripheral blood of adult secondary AML (sAML) patients or bone marrow of normal-aged donors (63-79 years old).\nFIG. 1: Rebecsinib treatment promotes human CD34^+ cells and spares CD45^+ cells Aged normal bone marrow (BM) samples were provided by Scripps Clinic La Jolla, CA. Normal human CD34^+ cells were freshly isolated with Microbeads (Miltenyi Biotech) and subsequently transduced with the ADAR1-NanoLuc reporter for 48 hours. Adult NSG-SGM3 mice (4-6 weeks) were intravenously transplanted with 100K ADAR1-NanoLuc reporter transduced CD34^+ cells. The mice were screened using the IVIS 200 imaging system and staining of peripheral blood with human CD45 monoclonal antibody. Mice with human CD45^+ cells >1% were included in the treatment cohort receiving Rebecsinib at a dose of 10 mg/kg, intravenously, twice a week for 2 weeks, with a total of 5 doses. After treatment, mice were sacrificed, and single cells were obtained from peripheral blood (PB), bone marrow (BM), and spleen (SP) for further analysis. A. IVIS 200 images of NSG-SGM3 mice intravenously transplanted with ADAR1-NanoLuc reporter transduced normal human CD34^+ cells at 18 weeks after transplantation. B. Flow cytometry gating strategies showing positive and negative controls. C."}, "[3]": {"test_system": "CD34+Lin- cells (sAML50261)", "assay": "sAML50261 PDX mice, flow cytometry of PB, SP, BM", "type": "in vivo, human cells in Rag2-/-gc-/- mice", "details": "10 mg/kg, intravenously, twice a week for 2 weeks", "experimental": "The mouse models were screened by staining the PB of each mouse with a human CD45 mAb. Mice with a threshold of human CD45^+ cells >1% were included in the treatment cohort for Rebecchini. The dosing plan involved administering Rebecsinib at a dose of 10 mg/kg, intravenously, twice a week for 2 weeks, with a total of 5 doses. Single cells were isolated from the mouse organs, including PB, SP, and BM, and subjected to staining with human stem cell markers and lineage cell markers."}}, "data": [{"molecule": "CC[C@H](OC)[C@@H](C)[C@H]1O[C@@H]1[C@@H](O)[C@H](C)/C=C/C=C(\\C)[C@H]1OC(=O)C[C@H](O)CC[C@@](C)(O)[C@@H](OC(C)=O)/C=C/[C@@H]1C", "note": "[Rebecsinib]", "values": [{"measurement": "intron retention in Sf3b family members", "setting": "[1]", "value": "rapidly induced"}, {"measurement": "CD45+CD3+GFP+ cells in PB, SP, and BM", "setting": "[2]", "value": "spares the cell populations"}, {"measurement": "CD45+GFP+ cells in PB, SP, and BM", "setting": "[2]", "value": "spares the cell populations"}, {"measurement": "human CD45+ cells and differentiated cells (CD14+, CD3+, CD19+)", "setting": "human CD34+ cells", "value": "preserves human CD45^+ cells and differentiated cells, including CD14^+ myeloid cells, and lymphoid cells such as CD3^+ T and CD19^+ B cells"}, {"measurement": "human CD34+ cells in BM", "setting": "human CD34+ cells; bone marrow, p=0.046, Student's t-test", "value": "significant CD34^+ increase"}, {"measurement": "human CD34+ cells in PB", "setting": "human CD34+ cells; peripheral blood", "value": "increased levels of human CD34^+ cells"}, {"measurement": "human CD34+ cells in SP", "setting": "human CD34+ cells; spleen", "value": "increased levels of human CD34^+ cells"}, {"measurement": "human CD45+ cells in PB, BM, and SP", "setting": "[3]", "value": "preserved human CD45^+ cells"}, {"measurement": "CD34+Lin- cell population in SP", "setting": "[3]; p=0.0006, Student's t-test", "value": "significant inhibition"}, {"measurement": "CD34+Lin- cell population in PB", "setting": "[3]; p=0.0015, Student's t-test", "value": "significant inhibition"}]}]}
